Reference: US10168342B2, “Lipid probes and uses thereof” (THE SCRIPPS RESEARCH INSTITUTE, priority 2015, dated 2019)

Key:
Type in all cases: cell-based
[1] = target: T1, lipid-binding proteins in Neuro2a cells (Mus musculus, UniProt Q8VCD6); assay: SILAC MS mapping of lipid probe targets (probe-versus-No UV, probe-versus-probe) in Neuro2a cells; details: A-DA probe, No UV control, target protein Reep2 (Q8VCD6)
T1 construct: endogenous in cells; host or cells: Neuro2a

[2] = target: T2, lipid-binding proteins in A549 cells (Homo sapiens, UniProt Q15738); assay: SILAC MS mapping of UV-dependent lipid probe targets in A549 cells; details: A-DA probe vs NoUV
T2 construct: endogenous in cells; host or cells: A549 (PMA-stimulated for the PTGS2 experiments)

[3] = target: T3, lipid-binding proteins in A549 cells (Homo sapiens, UniProt Q86XL3); assay: as above; details: A-DA probe vs NoUV
T3 construct: endogenous in cells; host or cells: A549 (PMA-stimulated for the PTGS2 experiments)
T3 sequence (Q86XL3 whole entry): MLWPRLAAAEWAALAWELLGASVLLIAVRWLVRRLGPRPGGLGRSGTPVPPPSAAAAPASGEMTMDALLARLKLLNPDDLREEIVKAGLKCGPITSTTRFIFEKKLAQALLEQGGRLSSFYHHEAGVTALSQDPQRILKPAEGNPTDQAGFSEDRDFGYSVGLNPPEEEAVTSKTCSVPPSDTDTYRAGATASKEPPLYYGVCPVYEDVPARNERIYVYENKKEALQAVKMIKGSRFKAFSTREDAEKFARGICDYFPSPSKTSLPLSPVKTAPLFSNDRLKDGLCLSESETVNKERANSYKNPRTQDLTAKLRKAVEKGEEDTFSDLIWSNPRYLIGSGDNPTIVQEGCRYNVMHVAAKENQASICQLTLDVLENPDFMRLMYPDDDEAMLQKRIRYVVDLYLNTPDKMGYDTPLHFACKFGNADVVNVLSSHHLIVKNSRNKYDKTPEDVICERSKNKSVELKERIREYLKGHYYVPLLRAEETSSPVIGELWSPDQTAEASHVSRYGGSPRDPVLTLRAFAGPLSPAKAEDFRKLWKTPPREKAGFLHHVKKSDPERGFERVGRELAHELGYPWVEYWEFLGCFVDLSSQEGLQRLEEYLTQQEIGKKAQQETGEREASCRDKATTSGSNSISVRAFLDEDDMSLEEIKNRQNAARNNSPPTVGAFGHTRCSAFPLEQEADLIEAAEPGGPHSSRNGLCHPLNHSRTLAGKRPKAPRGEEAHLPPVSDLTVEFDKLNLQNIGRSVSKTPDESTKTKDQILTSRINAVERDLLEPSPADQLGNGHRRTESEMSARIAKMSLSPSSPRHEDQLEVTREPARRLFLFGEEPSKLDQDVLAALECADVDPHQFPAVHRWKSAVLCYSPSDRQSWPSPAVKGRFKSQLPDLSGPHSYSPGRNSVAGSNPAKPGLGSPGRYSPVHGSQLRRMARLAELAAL

[4] = target: T4, lipid-binding proteins in A549 cells (Homo sapiens, UniProt Q96G23); assay: as above; details: A-DA probe vs NoUV
T4 construct: endogenous in cells; host or cells: A549 (PMA-stimulated for the PTGS2 experiments)

[5] = target: T5, lipid-binding proteins in A549 cells (Homo sapiens, UniProt Q96KC8); assay: as above; details: A-DA probe vs NoUV
T5 construct: endogenous in cells; host or cells: A549 (PMA-stimulated for the PTGS2 experiments)
T5 sequence (Q96KC8 48-554): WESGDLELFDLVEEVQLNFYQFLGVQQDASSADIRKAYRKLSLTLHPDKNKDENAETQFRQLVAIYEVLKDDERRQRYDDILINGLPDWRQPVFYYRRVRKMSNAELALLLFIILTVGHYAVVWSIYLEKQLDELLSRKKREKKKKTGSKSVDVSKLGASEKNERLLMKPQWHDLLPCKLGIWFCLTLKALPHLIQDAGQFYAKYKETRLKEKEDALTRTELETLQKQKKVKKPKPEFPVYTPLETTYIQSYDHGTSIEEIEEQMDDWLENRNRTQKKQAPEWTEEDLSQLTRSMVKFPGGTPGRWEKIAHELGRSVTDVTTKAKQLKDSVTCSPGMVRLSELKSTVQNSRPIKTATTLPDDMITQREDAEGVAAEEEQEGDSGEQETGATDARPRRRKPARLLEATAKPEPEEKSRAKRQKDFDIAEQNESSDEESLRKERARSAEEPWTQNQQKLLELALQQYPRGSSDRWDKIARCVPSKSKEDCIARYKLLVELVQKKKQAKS

[6] = target: T6, lipid-binding proteins in A549 cells (Homo sapiens, UniProt P07093); assay: as above; details: protein SERPINE2 (P07093), A-DA probe
T6 construct: endogenous in cells; host or cells: A549 (PMA-stimulated for the PTGS2 experiments)
T6 sequence (P07093 20-398): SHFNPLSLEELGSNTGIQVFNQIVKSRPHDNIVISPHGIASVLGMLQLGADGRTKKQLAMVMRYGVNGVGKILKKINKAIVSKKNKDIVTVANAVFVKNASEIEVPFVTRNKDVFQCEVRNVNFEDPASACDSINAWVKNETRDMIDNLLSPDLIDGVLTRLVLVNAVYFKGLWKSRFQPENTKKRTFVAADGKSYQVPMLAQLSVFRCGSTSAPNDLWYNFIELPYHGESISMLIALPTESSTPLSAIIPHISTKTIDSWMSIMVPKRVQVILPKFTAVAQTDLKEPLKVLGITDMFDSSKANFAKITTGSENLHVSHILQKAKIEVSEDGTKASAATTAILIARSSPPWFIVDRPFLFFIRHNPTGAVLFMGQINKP

[7] = target: T7, lipid-binding proteins in A549 cells (Homo sapiens, UniProt Q9BTX1); assay: as above; details: A-DA probe vs NoUV
T7 construct: endogenous in cells; host or cells: A549 (PMA-stimulated for the PTGS2 experiments)

[8] = target: T8, lipid-binding proteins in A549 cells (Homo sapiens, UniProt Q9HAW7); assay: as above; details: A-DA probe vs NoUV
T8 construct: endogenous in cells; host or cells: A549 (PMA-stimulated for the PTGS2 experiments)
T8 sequence (Q9HAW7 26-530): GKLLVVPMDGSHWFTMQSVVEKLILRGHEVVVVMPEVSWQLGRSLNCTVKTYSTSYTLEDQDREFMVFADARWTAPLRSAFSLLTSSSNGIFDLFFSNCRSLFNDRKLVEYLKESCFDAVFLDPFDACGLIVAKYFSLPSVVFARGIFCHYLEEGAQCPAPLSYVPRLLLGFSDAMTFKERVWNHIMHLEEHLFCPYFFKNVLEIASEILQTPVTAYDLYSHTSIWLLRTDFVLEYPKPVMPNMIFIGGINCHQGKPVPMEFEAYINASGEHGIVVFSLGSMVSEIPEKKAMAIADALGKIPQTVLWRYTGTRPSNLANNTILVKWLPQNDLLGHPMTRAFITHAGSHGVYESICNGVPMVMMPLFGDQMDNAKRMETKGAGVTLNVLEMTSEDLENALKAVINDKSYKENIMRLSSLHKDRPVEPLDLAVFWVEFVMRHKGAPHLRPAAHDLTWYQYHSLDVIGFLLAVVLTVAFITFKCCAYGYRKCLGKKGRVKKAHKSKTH

[9] = target: T9, lipid-binding proteins in A549 cells (Homo sapiens, UniProt O75911); assay: as above; details: A-DA probe vs NoUV
T9 construct: endogenous in cells; host or cells: A549 (PMA-stimulated for the PTGS2 experiments)

[10] = target: T10, lipid-binding proteins in A549 cells (Homo sapiens, UniProt Q8IZV5); assay: as above; details: A-DA probe vs NoUV
T10 construct: endogenous in cells; host or cells: A549 (PMA-stimulated for the PTGS2 experiments)

[11] = target: T11, lipid-binding proteins in A549 cells (Homo sapiens, UniProt Q9Y639); assay: as above; details: A-DA probe vs NoUV
T11 construct: endogenous in cells; host or cells: A549 (PMA-stimulated for the PTGS2 experiments)
T11 sequence (Q9Y639 29-398): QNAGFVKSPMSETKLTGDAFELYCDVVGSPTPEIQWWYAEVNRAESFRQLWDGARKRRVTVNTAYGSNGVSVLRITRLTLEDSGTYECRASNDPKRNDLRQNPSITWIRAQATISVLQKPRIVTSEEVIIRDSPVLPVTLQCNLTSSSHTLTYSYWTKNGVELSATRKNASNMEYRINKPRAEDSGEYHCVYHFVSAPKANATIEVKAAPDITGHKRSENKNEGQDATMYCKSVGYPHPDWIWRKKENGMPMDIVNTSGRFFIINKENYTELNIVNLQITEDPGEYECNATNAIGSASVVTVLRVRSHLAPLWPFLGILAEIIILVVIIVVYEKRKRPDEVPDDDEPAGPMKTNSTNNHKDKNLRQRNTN

[12] = target: T12, lipid-binding proteins in A549 cells (Homo sapiens, UniProt P30519); assay: as above; details: A-DA probe vs NoUV
T12 construct: endogenous in cells; host or cells: A549 (PMA-stimulated for the PTGS2 experiments)

[13] = target: T13, lipid-binding proteins in A549 cells (Homo sapiens, UniProt Q7Z2K6); assay: as above; details: A-DA probe vs NoUV
T13 construct: endogenous in cells; host or cells: A549 (PMA-stimulated for the PTGS2 experiments)

[14] = target: T14, lipid-binding proteins in A549 cells (Homo sapiens, UniProt Q9H6K4); assay: as above; details: A-DA probe vs NoUV
T14 construct: endogenous in cells; host or cells: A549 (PMA-stimulated for the PTGS2 experiments)

[15] = target: T15, lipid-binding proteins in A549 cells (Homo sapiens, UniProt P67812); assay: as above; details: A-DA probe vs NoUV
T15 construct: endogenous in cells; host or cells: A549 (PMA-stimulated for the PTGS2 experiments)

[16] = target: T16, lipid-binding proteins in A549 cells (Homo sapiens, UniProt Q99536); assay: as above; details: A-DA probe vs NoUV
T16 construct: endogenous in cells; host or cells: A549 (PMA-stimulated for the PTGS2 experiments)
T16 sequence (Q99536 whole entry): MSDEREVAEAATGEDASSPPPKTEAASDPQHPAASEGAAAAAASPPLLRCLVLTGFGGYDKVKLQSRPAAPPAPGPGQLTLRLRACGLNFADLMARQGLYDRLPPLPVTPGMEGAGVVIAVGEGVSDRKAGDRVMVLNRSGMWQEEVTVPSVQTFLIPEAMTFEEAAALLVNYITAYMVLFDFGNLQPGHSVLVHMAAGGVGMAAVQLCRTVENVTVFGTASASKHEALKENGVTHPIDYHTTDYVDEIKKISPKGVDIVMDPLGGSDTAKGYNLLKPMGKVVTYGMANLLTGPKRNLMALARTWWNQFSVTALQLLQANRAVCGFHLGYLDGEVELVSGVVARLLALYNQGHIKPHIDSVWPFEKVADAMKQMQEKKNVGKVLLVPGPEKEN

[17] = target: T17, lipid-binding proteins in A549 cells (Homo sapiens, UniProt P07602); assay: as above; details: A-DA probe vs NoUV
T17 construct: endogenous in cells; host or cells: A549 (PMA-stimulated for the PTGS2 experiments)
T17 sequence (P07602 60-524): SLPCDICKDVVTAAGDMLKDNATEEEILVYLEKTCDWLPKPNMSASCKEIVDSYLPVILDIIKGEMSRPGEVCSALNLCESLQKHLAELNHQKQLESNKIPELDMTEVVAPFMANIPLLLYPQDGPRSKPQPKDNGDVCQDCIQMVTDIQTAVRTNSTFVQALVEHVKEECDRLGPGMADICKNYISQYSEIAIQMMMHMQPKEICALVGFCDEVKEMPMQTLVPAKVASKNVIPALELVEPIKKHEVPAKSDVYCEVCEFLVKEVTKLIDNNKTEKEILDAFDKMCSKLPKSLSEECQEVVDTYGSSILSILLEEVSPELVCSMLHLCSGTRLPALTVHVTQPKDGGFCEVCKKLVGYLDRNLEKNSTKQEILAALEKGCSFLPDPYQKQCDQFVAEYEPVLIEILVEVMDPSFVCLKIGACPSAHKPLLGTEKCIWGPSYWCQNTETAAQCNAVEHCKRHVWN

[18] = target: T18, lipid-binding proteins in A549 cells (Homo sapiens, UniProt Q8NF37); assay: as above; details: A-DA probe vs NoUV
T18 construct: endogenous in cells; host or cells: A549 (PMA-stimulated for the PTGS2 experiments)

[19] = target: T19, lipid-binding proteins in A549 cells (Homo sapiens, UniProt Q14534); assay: as above; details: A-DA probe vs NoUV
T19 construct: endogenous in cells; host or cells: A549 (PMA-stimulated for the PTGS2 experiments)

[20] = target: T20, lipid-binding proteins in A549 cells (Homo sapiens, UniProt Q9UH99); assay: as above; details: protein SUN2 (Q9UH99), A-DA probe
T20 construct: endogenous in cells; host or cells: A549 (PMA-stimulated for the PTGS2 experiments)

[21] = target: T21, lipid-binding proteins in A549 cells (Homo sapiens, UniProt O15173); assay: as above; details: A-DA probe vs NoUV
T21 construct: endogenous in cells; host or cells: A549 (PMA-stimulated for the PTGS2 experiments)

[22] = target: T22, lipid-binding proteins in A549 cells (Homo sapiens, UniProt P21796); assay: as above; details: A-DA probe vs NoUV
T22 construct: endogenous in cells; host or cells: A549 (PMA-stimulated for the PTGS2 experiments)

[23] = target: T23, lipid-binding proteins in A549 cells (Homo sapiens, UniProt Q5HYK3); assay: as above; details: A-DA probe vs NoUV
T23 construct: endogenous in cells; host or cells: A549 (PMA-stimulated for the PTGS2 experiments)
T23 sequence (Q5HYK3 43-327): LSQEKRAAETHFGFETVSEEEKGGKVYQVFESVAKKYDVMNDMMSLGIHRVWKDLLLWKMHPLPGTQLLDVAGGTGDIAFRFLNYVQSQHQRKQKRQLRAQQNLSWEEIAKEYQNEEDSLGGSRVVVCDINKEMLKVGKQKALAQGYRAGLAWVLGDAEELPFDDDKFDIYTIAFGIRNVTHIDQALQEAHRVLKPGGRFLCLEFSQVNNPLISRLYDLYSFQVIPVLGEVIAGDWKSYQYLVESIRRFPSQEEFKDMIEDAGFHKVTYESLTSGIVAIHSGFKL

[24] = target: T24, lipid-binding proteins in A549 cells (Homo sapiens, UniProt P45880); assay: as above; details: A-DA probe vs NoUV
T24 construct: endogenous in cells; host or cells: A549 (PMA-stimulated for the PTGS2 experiments)

[25] = target: T25, lipid-binding proteins in A549 cells (Homo sapiens, UniProt O95470); assay: as above; details: A-DA probe vs NoUV
T25 construct: endogenous in cells; host or cells: A549 (PMA-stimulated for the PTGS2 experiments)

[26] = target: T26, lipid-binding proteins in A549 cells (Homo sapiens, UniProt Q53GQ0); assay: as above; details: A-DA probe vs NoUV
T26 construct: endogenous in cells; host or cells: A549 (PMA-stimulated for the PTGS2 experiments)

[27] = target: T27, lipid-binding proteins in A549 cells (Homo sapiens, UniProt P50402); assay: as above; details: A-DA probe vs NoUV
T27 construct: endogenous in cells; host or cells: A549 (PMA-stimulated for the PTGS2 experiments)
T27 sequence (P50402 whole entry): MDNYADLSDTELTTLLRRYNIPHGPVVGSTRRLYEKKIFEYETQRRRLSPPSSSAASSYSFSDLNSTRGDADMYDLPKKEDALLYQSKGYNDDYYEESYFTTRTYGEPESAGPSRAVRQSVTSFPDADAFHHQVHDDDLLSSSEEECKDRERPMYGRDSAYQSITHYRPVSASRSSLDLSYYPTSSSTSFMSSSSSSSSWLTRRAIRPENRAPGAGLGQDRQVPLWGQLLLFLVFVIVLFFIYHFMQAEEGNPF

[28] = target: T28, lipid-binding proteins in A549 cells (Homo sapiens, UniProt Q6P1A2); assay: as above; details: A-DA probe vs NoUV
T28 construct: endogenous in cells; host or cells: A549 (PMA-stimulated for the PTGS2 experiments)

[29] = target: T29, lipid-binding proteins in A549 cells (Homo sapiens, UniProt Q9NX47); assay: as above; details: A-DA probe vs NoUV
T29 construct: endogenous in cells; host or cells: A549 (PMA-stimulated for the PTGS2 experiments)
T29 sequence (Q9NX47 whole entry): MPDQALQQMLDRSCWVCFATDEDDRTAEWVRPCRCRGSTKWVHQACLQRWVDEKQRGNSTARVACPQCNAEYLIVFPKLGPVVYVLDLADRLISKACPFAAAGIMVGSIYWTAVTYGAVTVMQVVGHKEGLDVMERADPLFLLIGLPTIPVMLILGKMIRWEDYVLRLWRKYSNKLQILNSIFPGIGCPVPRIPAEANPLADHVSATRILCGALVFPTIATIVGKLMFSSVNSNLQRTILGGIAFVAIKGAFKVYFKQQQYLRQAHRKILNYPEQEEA

[30] = target: T30, lipid-binding proteins in A549 cells (Homo sapiens, UniProt P35354); assay: as above
T30 construct: endogenous in cells; host or cells: A549 (PMA-stimulated for the PTGS2 experiments)
T30 sequence (P35354 18-604): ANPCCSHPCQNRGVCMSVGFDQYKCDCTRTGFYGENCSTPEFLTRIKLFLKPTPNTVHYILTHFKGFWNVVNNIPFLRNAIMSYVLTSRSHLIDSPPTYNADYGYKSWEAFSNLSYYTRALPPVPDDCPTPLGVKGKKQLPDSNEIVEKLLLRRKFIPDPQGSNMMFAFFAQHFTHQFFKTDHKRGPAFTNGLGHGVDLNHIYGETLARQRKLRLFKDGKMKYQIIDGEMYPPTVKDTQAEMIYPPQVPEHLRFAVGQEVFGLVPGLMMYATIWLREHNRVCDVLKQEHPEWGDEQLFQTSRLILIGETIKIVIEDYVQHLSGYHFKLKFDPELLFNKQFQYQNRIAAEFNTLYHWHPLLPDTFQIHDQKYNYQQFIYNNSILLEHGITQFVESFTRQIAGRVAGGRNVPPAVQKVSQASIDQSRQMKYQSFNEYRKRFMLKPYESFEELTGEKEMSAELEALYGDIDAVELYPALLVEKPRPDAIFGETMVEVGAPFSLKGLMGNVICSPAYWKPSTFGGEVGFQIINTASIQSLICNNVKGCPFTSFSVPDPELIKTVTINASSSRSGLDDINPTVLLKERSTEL

[31] = target: T31, lipid-binding proteins in A549 cells (Homo sapiens, UniProt Q9NS69); assay: as above; details: A-DA probe vs NoUV
T31 construct: endogenous in cells; host or cells: A549 (PMA-stimulated for the PTGS2 experiments)

[32] = target: T32, lipid-binding proteins in A549 cells (Homo sapiens, UniProt Q8N5I4); assay: as above; details: A-DA probe vs NoUV
T32 construct: endogenous in cells; host or cells: A549 (PMA-stimulated for the PTGS2 experiments)

SMILES: C#CCCC/C=C\C/C=C\C/C=C\C/C=C\CCCC(=O)NCCC1(C)N=N1 [A-DA, (5Z,8Z,11Z,14Z)-N-(2-(3-methyl-3H-diazirin-3-yl)ethyl)icosa-5,8,11,14-tetraen-19-ynamide]
- SILAC ratio, No UV (A-DA probe versus No UV), Reep2 (Q8VCD6) [1]: 20.0
- SILAC ratio, NSDHL (Q15738) [2]: 16.9
- SILAC ratio, ANKLE2 (Q86XL3) [3]: 20.0
- SILAC ratio, CERS2 (Q924Z4) [4]: 13.3
- SILAC ratio, DNAJC1 (Q96KC8) [5]: 20.0
- SILAC ratio, No UV (A-DA probe versus No UV) [6]: 4.5
- SILAC ratio, TMEM48 (Q8VCB1) [7]: 20.0
- SILAC ratio, UGT1A7 (Q9HAW7) [8]: 20.0
- SILAC ratio, DHRS3 (O75911) [9]: 15.6
- SILAC ratio, RDH10 (Q8IZV5) [10]: 20.0
- SILAC ratio, NPTN (Q9Y639) [11]: 20.0
- SILAC ratio, HMOX2 (P30519) [12]: 20.0
- SILAC ratio, ERMP1 (Q7Z2K6) [13]: 20.0
- SILAC ratio, OPA3 (Q505D7) [14]: 20.0
- SILAC ratio, SEC11A (P67812) [15]: 20.0
- SILAC ratio, VAT1 (Q99536) [16]: 7.8
- SILAC ratio, PSAP (P07602) [17]: 20.0
- SILAC ratio, LPCAT1 (Q8NF37) [18]: 20.0
- SILAC ratio, SQLE (Q14534) [19]: 20.0
- SILAC ratio, No UV (A-DA probe versus No UV) [20]: 20.0
- SILAC ratio, PGRMC2 (Q80UU9) [21]: 20.0
- SILAC ratio, VDAC1 (P21796) [22]: 20.0
- SILAC ratio, COQ5 (Q5HYK3) [23]: 20.0
- SILAC ratio, VDAC2 (P45880) [24]: 19.7
- SILAC ratio, SGPL1 (O95470) [25]: 19.7
- SILAC ratio, HSD17B12 (Q53GQ0) [26]: 20.0
- SILAC ratio, EMD (O08579) [27]: 10.3
- SILAC ratio, LPCAT3 (Q6P1A2) [28]: 20.0
- SILAC ratio, MARCH5 (Q3KNM2) [29]: 4.1
- SILAC ratio of PTGS2, probe versus No UV ([30]; A-DA 5 μM): 3.2
- SILAC ratio, PTGS2 (P35354) ([30]; A-DA probe vs NoUV): 3.2
- SILAC ratio, TOMM22 (Q9CPQ3) [31]: 18.4
- SILAC ratio, DHRSX (Q8N5I4) [32]: 20.0
